Measured values taken from PMC13586308, “Cell type–selective targeting by heterobifunctional protein binders via in-cell enrichment” (Nature Communications, 2026).
Like-named read-outs stand apart in the source and are kept apart here.

Columns and labels:
INA-6 cells = experiment: cell viability, INA-6 FKBP12 knockout or NTC; type: cell-based, human; conditions: for IC50: Homo sapiens, INA-6
BRD4 43-463 = BRD4 43-463 (Homo sapiens, UniProt O60885); experiment: competitive FP assay, BRD4 tandem bromo domain construct; type: binding
MV4-11 cells = experiment: CellTiter-Glo cell viability, MV4-11; type: cell-based, human; conditions: five days, without FKBP12 PROTAC; for IC50: Homo sapiens, MV4-11, 120 h, read-out: Cell toxicity (MV4-11) - FKBP12 PROTAC IC50
BRD3BD2 = target: T1, BRD3BD2 (Homo sapiens, UniProt Q15059); experiment: competitive FP assay, BRD3 BD2 -/+ FKBP12; type: binding
T1 construct: to the isolated BD1 and BD2 domains of BRD2, BRD3 and BRD4

BRD2BD2 = BRD2BD2 (Homo sapiens, UniProt P25440); experiment: competitive FP assay, BRD2 BD2 -/+ FKBP12; type: binding
[1] = target: T2, His-BRD4^BD2 + eGFP-FKBP12 (Homo sapiens, UniProt O60885+P62942); experiment: HTRF ternary complex formation BRD4 BD2 + EGFP-FKBP12; type: binding; conditions: eGFP-FKBP12 5 µM, His-BRD4^BD2 100 nM; read-out: HTRF BRD4^BD2 + GFP-FKBP12 Kd
T2 construct: the His6-tag of the respective BD1 or BD2 domain of BRD4 and EGFP-labeled FKBP12

MYC mRNA = experiment: quantitative RT-PCR of MYC mRNA, MV4-11; type: cell-based, human; conditions: Homo sapiens, 6 h; MV4-11, six hours, without FKBP12 PROTAC; read-out: MYC mRNA levels IC50
BRD4 = target: T3, BRD4 (Homo sapiens, UniProt O60885); experiment: NanoBRET BRD4, transient BRD4-NanoLuc in HEK293T cells; type: cell-based; conditions: intact HEK293 cells
T3 construct: full-length BRD4 fused to NanoLuc at N terminus; expressed in transfected cells; host or cells: HEK293T
Outline: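 BRD4 engagement measured in HEK293T cells transiently expressing N-terminal NanoLuc-BRD4 (20 h), with BRD Tracer-02 at its KD concentration. Cells equilibrated with serially diluted inhibitors for 2 h at 37 °C. Donor 450 nm/acceptor 610 nm BRET read; IC50 from normalized 3-parameter fit.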

FKBP12 [2] = target: T4, FKBP12 (Homo sapiens, UniProt P62942); experiment: competitive fluorescence polarization assay, binding to FKBP12; conditions: competitive FP assay
FKBP12 [3] = target: T4, FKBP12; experiment: NanoBRET FKBP12 in intact HEK293 cells; type: cell-based
BRD4^BD2 = target: T5, BRD4^BD2 (Homo sapiens, UniProt O60885); experiment: competitive fluorescence polarization assay, BRD4 BD2 -/+ presenter protein; type: binding; conditions: for α BRD4^BD2 (binding cooperativity factor): ratio of binding in absence or presence of FKBP12
T5 construct: to the isolated BD1 and BD2 domains of BRD2, BRD3 and BRD4

BRD4 43-463 Y97A [4] = experiment: competitive FP assay, BRD4 tandem construct Y97A; type: binding
BRD4 43-463 Y97A [5] = target: BRD4 43-463 Y97A (Homo sapiens, UniProt O60885, Y97A); experiment: competitive FP assay, BRD4 tandem construct Y97A; type: binding
BRD4 43-463 Y390A [6] = target: BRD4 43-463 Y390A (Homo sapiens, UniProt O60885, Y390A); experiment: competitive FP assay, BRD4 tandem construct Y390A; type: binding
BRD4 43-463 Y390A [7] = experiment: competitive FP assay, BRD4 tandem construct Y390A; type: binding
[8] = target: T6, His-BRD4^BD1 + eGFP-FKBP12 (Homo sapiens, UniProt O60885+P62942); experiment: HTRF ternary complex formation BRD4 BD1 + EGFP-FKBP12; type: binding; conditions: eGFP-FKBP12 5 µM, His-BRD4^BD1 100 nM; read-out: HTRF BRD4^BD1 + GFP-FKBP12 Kd
T6 construct: the His6-tag of the respective BD1 or BD2 domain of BRD4 and EGFP-labeled FKBP12

BRD2BD1 = target: T7, BRD2BD1 (Homo sapiens, UniProt P25440); experiment: competitive FP assay, BRD2 BD1 -/+ FKBP12; type: binding
T7 construct: to the isolated BD1 and BD2 domains of BRD2, BRD3 and BRD4

BRD3BD1 = target: T8, BRD3BD1 (Homo sapiens, UniProt Q15059); experiment: competitive FP assay, BRD3 BD1 -/+ FKBP12; type: binding
T8 construct: to the isolated BD1 and BD2 domains of BRD2, BRD3 and BRD4

[9] = FKBP12 knockout cells, read-out: Cell toxicity INA-6 FKBP12 KO IC50
[10] = nontargeted control (NTC) cells, read-out: Cell toxicity INA-6 NTC IC50
[11] = Binding to BRD4 43-463 + FKBP12 Kd, 15 µM FKBP12
[12] = Binding to BRD4 43-463 - FKBP12 Kd, absence of FKBP12
[13] = 15 µM FKBP12, read-out: Binding to BRD3BD2 + FKBP12 Kd
[14] = absence of FKBP12, read-out: Binding to BRD3BD2 - FKBP12 Kd
[15] = 15 µM FKBP12, read-out: Binding to BRD2BD2 + FKBP12 Kd
[16] = absence of FKBP12, read-out: Binding to BRD2BD2 - FKBP12 Kd
[17] = 15 µM FKBP51FK1, read-out: Binding to BRD4BD2 + FKBP51FK1 Kd
[18] = absence of FKBP12, 2 nM JQ1-FL tracer, read-out: Binding to BRD4^BD2 - FKBP12 Kd
[19] = absence of FKBP51FK1 (SI Table 3), read-out: Binding to BRD4BD2 - FKBP51FK1 Kd
[20] = presence of 15 µM FKBP12, read-out: Binding to BRD4^BD2 + FKBP12 Kd (converted)
[21] = Binding to BRD4 43-463 Y97A + FKBP12 Kd, 15 µM FKBP12
[22] = Binding to BRD4 43-463 Y97A - FKBP12 Kd, absence of FKBP12
[23] = Binding to BRD4 43-463 Y390A + FKBP12 Kd, 15 µM FKBP12
[24] = 15 µM FKBP12, read-out: Binding to BRD2BD1 + FKBP12 Kd
[25] = absence of FKBP12, read-out: Binding to BRD2BD1 - FKBP12 Kd
[26] = 15 µM FKBP12, read-out: Binding to BRD3BD1 + FKBP12 Kd
[27] = absence of FKBP12, read-out: Binding to BRD3BD1 - FKBP12 Kd

T8 sequence (Q15059 34-140 limits assumed): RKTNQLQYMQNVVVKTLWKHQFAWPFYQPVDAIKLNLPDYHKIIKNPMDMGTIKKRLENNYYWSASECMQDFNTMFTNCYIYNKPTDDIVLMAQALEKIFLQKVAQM
Chain of BRD2BD2 (P25440 344-453 limits assumed): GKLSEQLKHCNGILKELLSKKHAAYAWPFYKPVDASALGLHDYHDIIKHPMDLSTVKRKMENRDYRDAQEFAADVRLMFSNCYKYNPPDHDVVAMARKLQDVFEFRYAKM
T7 sequence (P25440 74-180 limits assumed): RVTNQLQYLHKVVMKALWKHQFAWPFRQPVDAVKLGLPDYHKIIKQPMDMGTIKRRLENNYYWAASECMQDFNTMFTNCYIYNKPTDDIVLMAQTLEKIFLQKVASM
T1 sequence (Q15059 306-415 limits assumed): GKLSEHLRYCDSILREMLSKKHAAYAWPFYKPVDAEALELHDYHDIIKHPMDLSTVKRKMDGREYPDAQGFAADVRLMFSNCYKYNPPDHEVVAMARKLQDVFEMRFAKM

| Compound | IC50 (INA-6 cells; [9]) [nM] | IC50 (INA-6 cells; [10]) [nM] | Kd (BRD4 43-463; [11]) [nM] | Kd (BRD4 43-463; [12]) [nM] | IC50 (MV4-11 cells) [nM] | α BRD3BD2 (BRD3BD2) | Kd (BRD3BD2; [13]) [nM] | Kd (BRD3BD2; [14]) [nM] | α BRD2BD2 (BRD2BD2) | Kd (BRD2BD2; [15]) [nM] | Kd (BRD2BD2; [16]) [nM] | Kd [1] [nM] | IC50 (MYC mRNA) [nM] | IC50 (BRD4) [nM] | Kd (FKBP12 [2]) [nM] | IC50 (FKBP12 [3]) [nM] | Kd (BRD4^BD2; [17]) [nM] | Kd (BRD4^BD2; [18]) [nM] | Kd (BRD4^BD2; [19]) [nM] | Kd (BRD4^BD2; [20]) [nM] | other results |
| --- | --- | --- | --- | --- | --- | --- | --- | --- | --- | --- | --- | --- | --- | --- | --- | --- | --- | --- | --- | --- | --- |
| Cc1sc2c(c1C)C(c1ccc(Cl)cc1)=NC(CC(=O)NCCOCCn1cc(COCC3CN(C(C)c4ccccn4)C(=O)C4CCCC3N4S(=O)(=O)c3cc(Cl)cc(Cl)c3)nn1)c1nnc(C)n1-2 (stereo not drawn) [a1dj] | 480 | 0.4 | 31 ± 2 | 266 ± 16 | 0.09 | 1.1 | 150 ± 30 | 170 ± 50 | 2.9 | 48 ± 17 | 140 ± 65 | 30 ± 7 | 5 | 653 | 0.4 | 2.6 | 1000 ± 500 | 400 ± 90 | 150 ± 50 | 90 | Cell toxicity INA-6 FKBP12 KO IC50 (INA-6 cells; FKBP12 knockout cells): hardly observable; Cell toxicity INA-6 NTC IC50 (INA-6 cells; nontargeted control (NTC) cells): sub-nanomolar; Cell toxicity (MV4-11) - FKBP12 PROTAC IC50 (MV4-11 cells): sub-nanomolar; α BRD4^BD2 (binding cooperativity factor) (BRD4^BD2): 4.4; α BRD4 43-463 Y97A (BRD4 43-463 Y97A [4]): 1.2; Kd (BRD4 43-463 Y97A [5]; [21]): 84 ± 10 nM; Kd (BRD4 43-463 Y97A [5]; [22]): 100 ± 17 nM; Kd (BRD4 43-463 Y390A [6]; [23]): 9 ± 1 nM; Kd (BRD4 43-463 Y390A [6]; absence of FKBP12): 106 ± 7 nM; α BRD4 43-463 Y390A (BRD4 43-463 Y390A [7]): 12; Kd [8]: 15 ± 3 nM; α BRD2BD1 (BRD2BD1): 16; Kd (BRD2BD1; [24]): 38 ± 6 nM; Kd (BRD2BD1; [25]): 610 ± 90 nM; Kd (BRD3BD1; [26]): 25 ± 3 nM; Kd (BRD3BD1; [27]): 290 ± 35 nM |
| Cc1sc2c(c1C)C(c1ccc(Cl)cc1)=NC(CC(=O)N1CCC3(CC1)CC(n1cc(C4CN(Cc5ccccn5)C(=O)C5CCCC4N5S(=O)(=O)c4cc(Cl)cc(Cl)c4)nn1)C3)c1nnc(C)n1-2 (stereo not drawn) [a13c] | > 1600 | 13 | 39 ± 3 | 790 ± 120 | 7.7 | 0.3 | 3000 ± 350 | 950 ± 100 | 1.6 | 600 ± 100 | 960 ± 350 | 300 ± 30 | 2.8 | 9060 | 1.7 | 76 | 190 ± 30 | 2300 ± 400 | 1600 ± 400 | 1900 | Cell toxicity INA-6 FKBP12 KO IC50 (INA-6 cells; FKBP12 knockout cells): hardly observable; α BRD4 43-463 (BRD4 43-463): 20; α BRD4 43-463 Y97A (BRD4 43-463 Y97A [4]): 1.2; Kd (BRD4 43-463 Y97A [5]; [21]): 670 ± 90 nM; Kd (BRD4 43-463 Y97A [5]; [22]): 800 ± 110 nM; Kd (BRD4 43-463 Y390A [6]; [23]): 15 ± 2 nM; Kd (BRD4 43-463 Y390A [6]; absence of FKBP12): 860 ± 140 nM; α BRD4 43-463 Y390A (BRD4 43-463 Y390A [7]): 57; Kd [8]: 13 ± 2 nM; α BRD2BD1 (BRD2BD1): 34; Kd (BRD2BD1; [24]): 100 ± 14 nM; Kd (BRD2BD1; [25]): 3400 ± 1600 nM; α BRD3BD1 (BRD3BD1): 46; Kd (BRD3BD1; [26]): 56 ± 5 nM; Kd (BRD3BD1; [27]): 2600 ± 1000 nM |
| Cc1sc2c(c1C)C(c1ccc(C#CCNC(=O)COCCn3cc(C4CN(Cc5ccccn5)C(=O)C5CCCC4N5S(=O)(=O)c4cc(Cl)cc(Cl)c4)nn3)cc1)=NC(CC(=O)OC(C)(C)C)c1nnc(C)n1-2 (stereo not drawn) [b3c] | 90 | 1.8 | 14 ± 2 | 79 ± 5 | 0.06 | 3.8 | 26 ± 6 | 100 ± 30 | 38 | 4 ± 2 | 150 ± 50 | 8 ± 3 | 2 | 194 | 3.7 | 29 | 250 ± 70 | 150 ± 20 | 120 ± 40 | 13 | concentration inducing reduced cell viability in FKBP12-negative cells (INA-6 cells; INA-6 FKBP12 knockout): ≥ 100 nM; α BRD4 43-463 (BRD4 43-463): 5.6; Cell toxicity (MV4-11) - FKBP12 PROTAC IC50 (MV4-11 cells): sub-nanomolar; α BRD4^BD2 (binding cooperativity factor) (BRD4^BD2): 12; α BRD4 43-463 Y97A (BRD4 43-463 Y97A [4]): 8.1; Kd (BRD4 43-463 Y97A [5]; [21]): 22 ± 3 nM; Kd (BRD4 43-463 Y97A [5]; [22]): 178 ± 20 nM; Kd (BRD4 43-463 Y390A [6]; [23]): 1.7 ± 0.5 nM; Kd (BRD4 43-463 Y390A [6]; absence of FKBP12): 25 ± 4 nM; α BRD4 43-463 Y390A (BRD4 43-463 Y390A [7]): 15; Kd [8]: 1 ± 0.6 nM; α BRD2BD1 (BRD2BD1): 8.2; Kd (BRD2BD1; [24]): 9 ± 4 nM; Kd (BRD2BD1; [25]): 74 ± 20 nM; α BRD3BD1 (BRD3BD1): 2.7; Kd (BRD3BD1; [26]): 13 ± 3 nM; Kd (BRD3BD1; [27]): 35 ± 7 nM |
